Assay results published in paper PMC7352571, “New Anti-Cancer Strategy to Suppress Colorectal Cancer Growth Through Inhibition of ATG4B and Lysosome Function” (Cancers, 2020).

Key:
SQSTM1 in HeLa cells = test: immunostaining of SQSTM1 dots; conditions: 10 µM, 6 h
caspase-3 = target: T1, caspase-3 (Homo sapiens, UniProt P42574); test: caspase-3 activity assay (Ac-DEVE-AFC cleavage in lysate of staurosporine-treated HeLa cells); assay type: biochemical; conditions: even at a concentration of 50 µM
T1 construct: endogenous in cells; host or cells: HeLa (staurosporine-treated, whole cell lysate)
T1 sequence (P42574 29-175 limits assumed): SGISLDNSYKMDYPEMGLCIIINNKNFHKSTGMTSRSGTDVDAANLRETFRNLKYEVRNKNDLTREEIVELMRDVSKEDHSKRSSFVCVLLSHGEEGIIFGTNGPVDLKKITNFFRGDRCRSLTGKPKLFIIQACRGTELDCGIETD
T1 sequence (P42574 176-277 limits assumed): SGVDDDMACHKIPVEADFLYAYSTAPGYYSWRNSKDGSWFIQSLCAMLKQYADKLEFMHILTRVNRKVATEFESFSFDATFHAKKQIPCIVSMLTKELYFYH
Description: . (B) Predicted binding model of compound XOS00163, XOS00201, and XOS00207 bind to ATG4B (PDB ID: 2CY7) pocket. […] . […] . HeLa cells were treated with 1 µM of staurosporine (SP) for 12 h to induce cell apoptosis. Then, 2 µg of the whole cell lysate were mixed with indicated compounds at 37° for 30 min, Ac-DEVE-AFC (25 µM) were then added to a volume of 50 µL, and the emission of 505 nm for AFC was recorded. […] |

ATG16L1 KO Hela cells = test: CCK-8 assay, ATG16L1 KO Hela cells; assay type: cell-based; conditions: Homo sapiens
Description: (§1) Cells were seeded and incubated overnight in 96-well plates at a density of 5 × 10^3 cells/well. […] A total of 10 µL CCK-8 were added to each well for additional 1 h and cell viability was measured by CCK-8 assay. Absorbance was measured at 450 nm. The IC50 values were calculated by GraphPad Prism 7 (GraphPad Software Inc., San Diego, CA, USA).
Figure S4. The identification of ATG4B knockout HCT116 cells. (A) The genomic DNA of HCT116 cells in the control group transfected with GFP-sgRNA and the experimental group transfected with ATG4B-sgRNA was used as a template for PCR, and the PCR products were used for sequencing. (B) Protein levels of ATG 4B and LC3B in the control and ATG4BKO cells.
Figure S5. 163N induces cell death through targeting autophagy. (A) Hela cells were treated with […]
performed to assess cell proliferation. ( B) Hela cells or ATG16L1 KO Hela cells were treated with […]

L02 cells = test: CCK-8 cell viability assay, normal cells L02; assay type: cell-based; conditions: at a higher concentration (40 µM), 48 h
Description: as §1
(§2) Figure S2. 163N could inhibit autophagy flux. (A) HeLa cells treated with different concentrations of
(§3) II/TUBA was calculated using ImageJ software.
(§4) was examined. The number of GFP-LC3B dots was quantified. Data are presented as mean ± SEM
(§5) was performed to assess cell viability. […]

MRC-5 cells = test: CCK-8 cell viability assay, normal cells MRC-5; assay type: cell-based; conditions: at a higher concentration (40 µM), 48 h
Description: as §1, §2, §3, §4, §5

HeLa cells = test: CCK-8 cell viability assay, HeLa; assay type: cell-based
Description: as §1

MGC803 cells = test: CCK-8 cell viability assay, MGC803; assay type: cell-based; conditions: Homo sapiens, MGC-803; CCK-8 assay, 48 h
Description: as §1

T98G cells = test: CCK-8 cell viability assay, T98G; assay type: cell-based; conditions: Homo sapiens, CCK-8 assay, 48 h
Description: as §1

LC3-II in HCT116 cells = test: western blot for LC3 conversion, HCT116; conditions: 1, 5, 10, 20 µM for 6 h; 10 µM time course
Description: The ratio of LC3B-II/TUBA was calculated using ImageJ software. […] The ratio of LC3B-II/TUBA was calculated using ImageJ software. […] Data are presented as mean ± SEM from three individual experiments. ** p < 0.01, *** p <0.001, ns, not significant.
20–30 µg of whole cell lysates were separated by SDS-PAGE to avoid saturation and transferred to PVDF membranes (Millipore, ISEQ00010, Burlington, MA, USA). After blocking, the membrane was incubated with primary antibodies and secondary antibodies. Specific proteins were detected using enhanced chemiluminescence developing agent (Millipore, WBULS0500). Images were taken using Kodak Image Station 4000 (Carestream Health, Rochester, NY, USA).

ATG4A = ATG4A (Homo sapiens, UniProt Q8WYN0); test: FRET-based assay for ATG4A activity
Chain of ATG4A (Q8WYN0 whole entry, species assumed): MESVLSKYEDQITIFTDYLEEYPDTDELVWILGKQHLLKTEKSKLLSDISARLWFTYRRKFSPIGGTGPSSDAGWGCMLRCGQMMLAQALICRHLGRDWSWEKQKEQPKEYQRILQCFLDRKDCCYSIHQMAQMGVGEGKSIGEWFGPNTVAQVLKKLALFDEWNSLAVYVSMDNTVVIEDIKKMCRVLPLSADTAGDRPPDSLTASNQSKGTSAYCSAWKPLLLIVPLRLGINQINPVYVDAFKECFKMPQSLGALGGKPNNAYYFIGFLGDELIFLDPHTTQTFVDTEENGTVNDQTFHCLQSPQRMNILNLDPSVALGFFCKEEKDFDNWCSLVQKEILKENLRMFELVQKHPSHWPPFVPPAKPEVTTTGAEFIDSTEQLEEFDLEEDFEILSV
Description: A FRET-based assay for detecting ATG4B activity was carried out as described [45].

[1] = test system: LC3B and LAMP1 in HeLa cells; test: immunostaining, colocalization of LC3B and LAMP1; assay type: cell-based; conditions: 10 µM, 6 h
Description: Figure 4 163N increases the accumulation of autolysosomes. (A) HEK293A cells expressing green fluorescent protein (GFP)-red fluorescent protein (RFP)-LC3 were treated with 163N (10 µM), rapamycin (Rap) (1 µM) or Baf (0.5 µM) for 6 h, then the colocalization of GFP and RFP puncta was detected. […] The colocalization of LC3B and LAMP1 was measured. […] Red arrows indicate normal autolysosome structures. (D) ATG4BKO HeLa cells expressing GFP-LC3[G120] or full length GFP-LC3 were treated with Rap (1 µM), 163N (10 µM), or CQ (40 µM) for 6 h, then the distribution of GFP-LC3 was examined. And the number of GFP-LC3 dots were quantified.
(§6) Immunostaining assay was performed as described previously. Cells were fixed in 4% paraformaldehyde for 15–20 min followed by permeabilization with 0.1% Triton X-100 for another 15 min. Then, PBS containing 5% bovine serum albumin was used for blocking. Primary antibodies (1:150) was used at 4° for one night and then secondary antibodies (1:500) were applied at room temperature for 1 h. EVOS FL Auto (Life Technologies) was used to get the fluorescence images. At least three optical fields with at least 100 cells were analyzed for quantification.

HCT116 cells = test: real-time cellular analysis (RTCA); assay type: cell-based, Human; conditions: 2 µM, wild type HCT116
Description: An E-Plate 16 (ACEA Biosciences, Hangzhou, China) was prepared with 50 µL of DMEM medium added to each well to do a background measurement in the xCELLigence instrument (ACEA Biosciences, China). 100 µL of passaged cell suspensions containing 2.5 × 10^3 cells were added to each well and then cells were settled on the base of the well for 30 min at room temperature. The plate was inserted into the RTCA system (housed within the incubator) and cell index (CI) values were assessed every 5 min over the following 72 h. After 24 h of cell seeding, the assay was paused and 2 µM 163N was added to each well. Then, the plate was placed in the station again and the analysis was restarted. After completing a total of 72 h of analysis, the data were analyzed with GraphPad 7.0 software.

A549 cells = test: CCK-8 cell viability assay, A549; assay type: cell-based; conditions: Homo sapiens, CCK-8 assay, 48 h
Description: as §1

[2] = test system: lysosome acidity in HeLa cells; test: LysoTracker Red (LTR) assay, HeLa; assay type: cell-based; conditions: 6 h, 163N 5 or 10 µM, Rap 1 µM, E64D 25 µM plus pepstatin A 50 µM
Description: (§7) Figure 5 163N causes lysosome dysfunction. […] (C) HeLa cells were treated with or without 163N (10 µM) for 6 h, followed by immunostaining using cathepsin B and LAMP1 antibody. The colocalization of cathepsin B and LAMP1 was measured.
LTR assay: cells were incubated with LTR (25 nM) in HBSS medium at 37° for 30 min, and then fluorescence microscopy was used for detecting fluorescence intensity.

HL60 cells = test: CCK-8 cell viability assay, HL60; assay type: cell-based; conditions: Homo sapiens, HL-60; CCK-8 assay
Description: as §1

[3] = test system: lysosomal membrane permeabilization in HeLa cells; test: immunostaining, colocalization of cathepsin B and LAMP1; assay type: cell-based; conditions: 10 µM, 6 h
Description: as §7, §6

SGC7901 cells = test: CCK-8 cell viability assay, SGC7901; assay type: cell-based; conditions: Homo sapiens, SGC-7901; CCK-8 assay, 48 h
Description: as §1

KYSE150 cells = test: CCK-8 cell viability assay, KYSE150; assay type: cell-based; conditions: Homo sapiens, KYSE-150; CCK-8 assay, 48 h
Description: as §1

With `COc1ccc(Nc2cc(C)nc(Nc3ccc(-c4cc5ccccc5o4)cc3)n2)cc1` [Compound 163N] the “degradation of autophagic substrate SQSTM1” value (SQSTM1 in HeLa cells) was “significantly attenuated the degradation of the autophagic substrate SQSTM1”, the “inhibition effect on caspase-3 activity” value (caspase-3) was “no inhibition effect” and the IC50 (ATG16L1 KO Hela cells) was 12.4 µM. The “cell viability of normal cells L02” value (L02 cells) was “reduce the cell viability”, the “cell viability of normal cells MRC-5” value (MRC-5 cells) was “reduce the cell viability” and the “cytotoxicity relative to XOS00163, XOS00201 and XOS00207, HeLa” value (HeLa cells; HeLa cells) was “about five times higher cytotoxicity”. The IC50 (HeLa cells; Homo sapiens, HeLa, CCK-8 assay, 48 h) was 7.06 µM, the IC50 (MGC803 cells) was 9.33 µM and the IC50 (T98G cells) was 7.23 µM. The “LC3-II level, HCT116” value (LC3-II in HCT116 cells) was “dose- and time-dependent accumulation of LC3-II”, the IC50 (ATG4A) was 53.7 µM and the “LC3 puncta and co-localization with LAMP1” value [1] was “remarkable increase of LC3 puncta, which were well co-localized with LAMP1”. For the same compound, the “cytotoxic effect in RTCA” value (HCT116 cells) was “significant cytotoxic effects”, the IC50 (A549 cells) was 7.68 µM and the “LTR red fluorescence / acidic vesicles” value [2] was “significant reduction in acidic vesicles”. For the same compound, the IC50 (HL60 cells) was 12.6 µM, the “lysosomal membrane permeabilization (cathepsin B/LAMP1 colocalization)” value [3] was “did not produce lysosomal membrane permeabilization” and the IC50 (SGC7901 cells) was 21.2 µM. For the same compound, the IC50 (KYSE150 cells) was 13 µM.
